In patent US20130064859A1, “COMBINATORIAL VITAMIN D AND PROBIOTIC THERAPY FOR INFLAMMATORY BOWEL DISEASE” (priority 2011, published 2013):

Columns and labels:
CD4+Foxp3+ T cells = assay: mouse DC / CD4+ T cell co-culture, Foxp3+ Treg induction; type: cell-based, mice; details: FIG. 6B
Protocol: In a particular example of the method of paragraph, mouse dendritic cells (DCs) are treated with PSA or PSA and vitamin D metabolite for 16-18 hrs, washed and co-cultured with naïve CD4+ T cells. After 4 days, cells were collected and stained for Foxp3. Percentage of Foxp3+ CD4+ T cells were determined by flow cytometry.
(§1) (A) Mouse DCs were stimulated with PSA (or PBS control), and Cyp27b1 transcript levels were measured by qRT-PCR. PSA induces the expression of the vitamin D-activating enzyme from WT, but not TLR2−/− DCs. (B) Mouse DCs were treated with PSA, washed and co-cultured with naïve CD4+ T cells. After 4 days, PSA increased Foxp3+ Treg proportions (see % in box). The vitamin D metabolite 25D augmented PSA-induced Tregs. (C) Human monocytes were treated with PSA or vehicle, washed and co-cultured with CD4+ T cells from PBMCs of the same donor. The MFI for Foxp3 among CD4+CD25+ T cells is shown with or without TGFβ. Collectively, we propose a model whereby PSA signals through TLR2 on DCs to induce expression of Cyp27b1, which converts 25D to 1,25D. The vitamin D receptor (VDR) in T cells responds to 1,25 D, and along with other PSA-specific signals, mediated the development of Treg cells (see diagram in FIG. 1).
(§2) Vitamin D enhances PSA-mediated induction of mouse and human Tregs. […]

[1] = tested on: Foxp3 expression in human Tregs; assay: human monocyte / CD4+ T cell co-culture, Foxp3 MFI; type: cell-based; details: FIG. 6C
Protocol: In a particular example of the method of paragraph, in vitro, human monocytes are treated with PSA or vehicle for 16-18 hrs, washed and co-cultured with CD4+ T cells from PBMCs of the same donor with or without TGFb. After 2 days, cells were collected and stained for Foxp3. MFI of Foxp3 among CD4+CD25+ T cells was determined by flow cytometry.
as §1, §2

TNBS colitis = assay: TNBS experimental colitis in mice treated with PSA; type: in vivo; details: for IL-10 expression in MLNs (qRT-PCR) / IL-17 levels in MLNs (qRT-PCR): FIG. 3C
Protocol: (§3) (A) Mice were treated with PSA or PBS. Analysis of the percentage of Foxp3+ cells within the CD4+CD25+ population in the MLNs is shown, indicated by the numbers in the top right quadrant. (B) CD4+CD25+ cells were purified from the MLNs of colitic PBS or PSA-treated mice and incubated with CFSE-pulsed CD4+CD25-responder cells in an in vitro suppression assay. Numbers indicate the percentage of cells undergoing at least one cellular division at 2 different ratios of effector T cells (Teff) and regulatory T cells (Treg). Top panels show results from healthy mice (−TNBS). (C) Disease scores for mice pre- and post-treated with PSA during TNBS colitis were assessed by a blinded pathologist. P values determined by a two-tailed Mann-Whitney U-test. **p value of <0.01. (D) Colons from mice were fixed, sectioned and stained with H&E to determine disease severity. Representative sections are shown.
(A) C57B1/6 WT or TLR2−/− animals were gavaged with purified PSA (or PBS) prior to TNBS administration. 5-6 days after onset of TNBS colitis, colons of animals were fixed, sectioned and H&E stained. Representative histological sections are shown. […] Each symbol represents a separate animal. *p value of <0.05. NS, not significant. (C) RNA was extracted from the MLNs of indicated mice either treated with PBS or PSA, and the expression levels of IL-10 and IL-17A were assayed by qRT-PCR. (D) Percentages of CD4+CD25+Foxp3+ T cells in the MLNs of TLR2−/−mice treated with PBS or PSA. Plots are gated on CD4+ T cells. Note: PSA increases CD4+CD25+Foxp3+ Treg proportions in WT mice by ˜25%.
B. fragilis induces Tregs that prevent and cure experimental IBD. Maintenance of homeostasis toward the intestinal microbial milieu is critical to the preservation of health, and defects in mucosal tolerance lead to disorders such as IBD. In animal models of IBD, intestinal inflammation is suppressed by various subsets of regulatory T cells (Tregs). Tregs emerge from the thymus and are marked by expression of CD4, CD25 and the transcription factor Foxp3 (Forkhead Box transcription factor for Treg differentiation). We have recently reported that the prominent human commensal, B. fragilis, directs the development of Foxp3+ Tregs in the gut during protection from experimental colitis in animal models. […] The Mazmanian laboratory employs 2 models of experimental colitis: 1) the T cell transfer model whereby various T cell subsets are transferred into RAG−/− animals allowing for the functional study of both pro- and anti-inflammatory T cells; 2) the TNBS (2,4,6-trinitrobenzene sulfonic acid) model, where rectal treatment of animals with an immunogenic chemical results in gut inflammation.
(§4) Here, we present data from the TNBS model, representative of results similar to the T cell transfer model. […] During protection from colitis (TNBS+PSA), PSA increases in-the percentage of Foxp3+ cells within the CD4+CD25+ compartment of the MLNs. […] The suppressive capacity of Tregs during PSA-mediated protection from intestinal inflammation was determined by in vitro suppression assays.
To examine if PSA can prevent and cure established colitis, animals were induced for TNBS colitis, and groups were either treated with vehicle (TNBS+PBS) or PSA either: 1) prior to disease induction (pre-TNBS+PSA) or 2) following rectal TNBS administration (post-TNBS+PSA).
PSA protection from experimental IBD requires TLR2 signaling. Multiple studies have implicated TLR signaling by innate immune cells during inflammatory disease. […] Wild-type (WT) or TLR2−/− animals were orally treated with PSA or PBS prior to induction of TNBS colitis. […] In contrast, TLR2−/− mice treated with PSA had marked inflammation including thickening of the mucosa, infiltrating leukocytes and crypt loss (FIG. 3A). […] As previously reported, WT animals were protected from colitis by PSA.

[2] = tested on: proliferation of CD4+CD25- responder T cells; assay: in vitro suppression assay with CD4+CD25+ Tregs from MLNs of treated mice; type: cell-based; details: Tregs from PSA fed mice (TNBS+PSA) vs untreated animals, FIG. 2B
Protocol: as §3, §4

Cyp27b1 = assay: qRT-PCR of Cyp27b1 in bone marrow-derived dendritic cells treated with PSA; type: cell-based, mice; details: FIG. 6A
Protocol: as §1
Vitamin D enhances PSA-mediated induction of mouse and human Tregs. As outlined above, the ability of PSA to protect against IBD in mice involves the gut-specific conversion of CD4+ cell into IL-10-secreting Foxp3+ Tregs. We hypothesize that vitamin D may play a pivotal role in this process, given our novel finding that PSA induces the vitamin D-activating machinery in mice (see FIG. 5C). […]

[3] = PSA following the onset of disease, data not shown

Substance: 25-hydroxyvitamin D [25D, reference compound]
- effect on PSA-induced increase of CD4+Foxp3+ T cells (CD4+Foxp3+ T cells; co-treatment of WT BMDCs with PSA and 25D): further enhanced

Substance: TGFβ [reference compound]
- effect on PSA-induced Tregs ([1]; co-culture with or without TGFβ): does not further enhance

Substance: polysaccharide A [PSA]
- colitis disease score (TNBS colitis; PSA following rectal TNBS administration (post-TNBS+PSA)): prevented the development of disease with equal efficacy
- Foxp3 expression by gut CD4+ T cells (TNBS colitis; [3]): increased
- IL-10 expression by gut CD4+ T cells (TNBS colitis; [3]): increased
- colitis disease score (TNBS colitis; PSA prior to disease induction (pre-TNBS+PSA)): prevented the development of disease with equal efficacy
- absolute number of CD4+CD25+Foxp3+ cells in the MLNs (TNBS colitis; PSA-treated vs PBS or non-colitic animals, data not shown): significantly higher
- IL-10 expression in MLNs (qRT-PCR) (TNBS colitis; TLR2-/- animals): no longer up-regulated
- protection from colitis (colitis score) (TNBS colitis; TLR2-/- animals, oral PSA prior to TNBS vs PBS, FIG. 3B): not protected
- percentage of CD4+Foxp3+ Tregs (TNBS colitis; TLR2-/- animals, relative to PBS controls, FIG. 3D): no differences
- IL-17 levels in MLNs (qRT-PCR) (TNBS colitis; TLR2-/- mice, PSA compared to PBS): increased
- percentage of Foxp3+ cells within the CD4+CD25+ compartment of the MLNs (TNBS colitis; TNBS+PSA vs TNBS+PBS, FIG. 2A): increases
- IL-10 expression in MLNs (qRT-PCR) (TNBS colitis; WT animals): induced
- IL-17 levels in MLNs (qRT-PCR) (TNBS colitis; WT animals): Suppression
- protection from colitis (histopathology, colitis score) (TNBS colitis; WT animals, oral PSA prior to TNBS, FIG. 3A/B): protected from disease
- increase of CD4+CD25+Foxp3+ Treg proportions (TNBS colitis; WT mice, MLNs, FIG. 3 note): ~25%
- pro-inflammatory Th17 cells (TNBS colitis; during both protection and cure of colitis, data not shown): significant decrease
- suppression of T cell proliferation by Tregs from MLNs [2]: suppressed T cell proliferation to a significantly higher level
- induction of Cyp27b1 expression (Cyp27b1; DCs from TLR2-/- mice): greatly diminished
- induction of Cyp27b1 expression (Cyp27b1; WT BMDC, PSA vs PBS control): 5 fold
- proportions of CD4+Foxp3+ T cells in culture (CD4+Foxp3+ T cells; WT BMDCs treated with PSA, over media controls): increases
- Foxp3 expression in human Tregs (MFI among CD4+CD25+ T cells) ([1]; human monocytes treated with purified PSA or vehicle): promotes Foxp3 expression
